Read-outs that look alike come from different tables or passages of the source. Non-standard residues stand in square brackets, D forms with d. Residues, ends and D or L forms follow the SMILES beside them. *: point of attachment. Aoe = N[C@@H](CCCCCC(=O)[C@@H]1CO1)C(=O)O; Asu = N[C@@H](CCCCCC(=O)O)C(=O)O; dPip = O=C(O)[C@H]1CCCCN1; Boc = CC(C)(C)OC(=O)*; NHOH = ON*
Columns and labels:
[1] = test system: mouse malignant melanoma B16/BL6 cell line; assay type: cell-based; settings: 72 hours; read-out: 50% proliferation inhibiting concentration B16/BL6 (nM) mean
From the text: (§1) In order to verify the action of the cyclic tetrapeptide derivative according to the present invention in inhibiting cell proliferation in cancerized cells, the action on the proliferation of the aforementioned B16/BL6 cells was investigated. The evaluation of cell proliferation rates was done utilizing a commercially available measuring kit, specifically, from Promega under the trade name CellTiter 96 Aqueous Non-Radioactive Proliferation Assay Kit. In the measuring kit, the amount of products through reduction of a reagent tetrazolium compound (3-(4,5-dimethylthiazol-2-yl)-5-(3-carboxymethoxyphenyl)-2-(4-sulfophenyl)-2H-tetrazolium, inner salt; MTS) by viable animal cells is determined by detecting spectrophotometrically the color generated from the products. Since the amount of products is proportional to the amount of viable cells, this kit is utilized to evaluate the amount of viable cells.
According to the procedure of Test Example 1, B16/BL6 cells are inoculated in a 96 well microplate and cultured for 24 hours. […] Thereafter, culture is continued for additional 48 hours and 20 μl of a reagent solution in the aforementioned CellTiter 96 Aqueous Non-Radioactive Proliferation Assay Kit is then added. After incubation is continued at 37° C. for 1 hour, the amount of color generation is measured as an absorbance at 490 n musing a microplate reader.
(§2) The amount of cell proliferation of a group to which a compound to be tested is added is expressed in a relative value as compared to the standard cell proliferation (100%) in a control group to which no compound to be tested is added. For each compound tested, the amounts of cell proliferation were measured at different concentrations of addition and the dependence of the quantitative cell proliferation on the concentration of addition was investigated.
(§3) The test method was in accordance with the above-mentioned procedure, except that the period of incubation after the addition of a compound was 72 hours.

[2] = test system: liver cancer MH134 cell line; assay: Cell proliferation inhibition (72 hours); assay type: cell-based, mouse; settings: read-out: 50% proliferation inhibiting concentration MH134 (nM) mean
From the text: as §1
(§4) According to the procedure of Test Example 1, B16/BL6 cells are inoculated in a 96 well microplate and cultured for 24 hours. Then, 10 μl of a solution of the source solution of a compound to be tested which has been diluted to a predetermined amount per well is added. Thereafter, culture is continued for additional 48 hours and 20 μl of a reagent solution in the aforementioned CellTiter 96 Aqueous Non-Radioactive Proliferation Assay Kit is then added. After incubation is continued at 37° C. for 1 hour, the amount of color generation is measured as an absorbance at 490 n musing a microplate reader.
as §2, with “investigated. From the results, a concentration of addition at which the amount of cell proliferation was inhibited by 50% relative to the amount of cell proliferation in the control group without addition was determined.” for “investigated.”
as §3
(§5) As illustrative examples, results are shown for an evaluation using mouse malignant melanoma B16/BL6 and B16 cell lines; leukemia L1210 cell line, colon cancer Colon26 cell line, and liver cancer MH134 cell line as cancer cells. For the cell proliferation inhibiting action of each compound tested for these cancer cells, 50% proliferation inhibiting concentrations are shown in Table 4.

leukemia L1210 cell line = assay: Cell proliferation inhibition (72 hours); assay type: cell-based, mouse; settings: read-out: 50% proliferation inhibiting concentration L1210 (nM) mean
From the text: as §1, §4
as §2, with “investigated. From the results, a concentration of addition at which the amount of cell proliferation was inhibited by 50% relative to the amount of cell proliferation in the control group without addition was determined.” for “investigated.”
as §3, §5

[3] = test system: colon cancer Colon26 cell line; assay: Cell proliferation inhibition (72 hours); assay type: cell-based, mouse; settings: read-out: 50% proliferation inhibiting concentration Colon 26 (nM) mean
From the text: as §1, §4
as §2, with “investigated. From the results, a concentration of addition at which the amount of cell proliferation was inhibited by 50% relative to the amount of cell proliferation in the control group without addition was determined.” for “investigated.”
as §3, §5

B16/BL6 cells = assay: MHC class-I molecule expression promoting activity; assay type: cell-based, mouse; settings: for conc. for 2-fold expression (nM) mean: mean of a plurality of assays, 72 hours
[4] = target: Mouse histone deacetylase; assay type: biochemical
Protocol: In an enzyme system using a radio-labelled acetylated histone as a substrate, histone deacetylase enzyme inhibiting activity was evaluated. The basic conditions were in accordance with the method of Yoshida et al. (J. Biol. Chem., 265, 17174-17179, 1990).
Mouse histone deacetylase to be used was partially purified from FM3A cells. Cells were suspended in HDA buffer (15 mM potassium phosphate, 5% glycerol, 0.2 mM EDTA, pH 7.5), homogenized and centrifuged (35000×g, 10 min) to collect the nuclei which in turn were homogenized in the same buffer containing 1 M (NH4)2SO4. After ultrasonic disruption and centrifugation, the concentration of (NH4)2SO4 in the supernatant was increased to 3.5 M to precipitate deacetylase enzyme proteins. This precipitate was redissolved in HDA buffer, dialyzed against HDA buffer, applied to DEAE-cellulose column and eluted in NaCl gradient. Active fractions were used as a histone deacetylase enzyme solution.
As a substrate, [^3H]acetyl histone was used. In a culture solution of FM3A cells in the presence of 5 mM sodium n-butyrate, [^3H]acetate was added, followed by incubation for 30 minutes to radio-label the histone. The histone was prepared in a conventional manner and used as a substrate solution.
An assay was performed by adding a compound to be tested at a given concentration while using a no-addition control group, and by incubating the substrate solution and the enzyme solution at 37° C. for 10 minutes (reaction volume, 100 μl). The enzyme reaction was stopped by adding 10 μl of concentrated hydrochloric acid and the excised [^3H]acetate was extracted with ethyl acetate for radioactivity measurement. The inhibiting activity was expressed by a concentration at which the enzyme activity in the control group was inhibited by 50% (50% inhibiting concentration).

[5] = test system: mouse malignant melanoma B16 cell line; assay: Cell proliferation inhibition (72 hours); assay type: cell-based; settings: read-out: 50% proliferation inhibiting concentration B16 (nM) mean
From the text: as §1, §4
as §2, with “investigated. From the results, a concentration of addition at which the amount of cell proliferation was inhibited by 50% relative to the amount of cell proliferation in the control group without addition was determined.” for “investigated.”
as §3, §5

[6] = enzyme from FM3A cells, [3H]acetyl histone, 37° C. 10 minutes

Row | SMILES | IC50 [1] [nM] | IC50 [2] [nM] | IC50 (leukemia L1210 cell line) [nM] | IC50 [3] [nM] | conc. for 2-fold expression (nM) mean (B16/BL6 cells) [nM] | IC50 [4, 6] [µM] | IC50 [5] [nM] | IC50 [4] [µM] | MHC class-I molecule expression promoting activity (B16/BL6 cells; allowed to act on animal cells (summary statement))
1 | CC(C)C[C@@H]1NC(=O)[C@@H](Cc2ccccc2)NC(=O)[C@H](CCCCCC(=O)NO)NC(=O)[C@@H]2CCCN2C1=O [HDA-28, cyclo(-L-Asu(NHOH)-D-Phe-L-Leu-L-Pro-)] (cyclo([Asu](NHOH)[dF]LP)) | 470 | 4830 | 1330 | 7370 | 80.2 | 0.00604 | 3820 | – | –
2 | CCCC(=O)[O-].[Na+] [Sodium n-butyrate, reference compound] | – | – | – | – | – | – | – | 119 | –
3 | C[C@@H]1NC(=O)[C@H]2CCCN2C(=O)[C@H](CCCCCC(=O)NO)NC(=O)[C@@H](C)NC1=O [HDA-13, cyclo(-L-Asu(NHOH)-D-Pro-L-Ala-D-Ala-)] (cyclo(A[dA][Asu](NHOH)[dP])) | 866 | 7920 | 2770 | 11000 | 406 | – | 15400 | – | –
4 | CC(=O)NCCCC[C@@H]1NC(=O)[C@H]2CCCN2C(=O)[C@H](Cc2ccccc2)NC(=O)[C@H](Cc2ccccc2)NC1=O [HDA-6, cyclo(-L-Lys(Ac)-L-Phe-L-Phe-D-Pro-)] (cyclo(FF[dP]K(Ac))) | – | – | – | – | 240000 | 27.8 | – | – | –
5 | O=C1N[C@@H](Cc2ccccc2)C(=O)N2CCCC[C@@H]2C(=O)N[C@@H](CCCCCC(=O)[C@@H]2CO2)C(=O)N[C@H]1Cc1ccccc1 [trapoxin A, reference compound] (cyclo([Aoe]FF[dPip])) | – | – | – | – | 3.59 | 0.00047 | – | – | exhibit the MHC class-I molecule expression promoting activity
6 | CC(C)C[C@@H]1NC(=O)[C@@H](Cc2ccccc2)NC(=O)[C@H](CCCCCC(=O)NO)NC(=O)[C@H]2CCCN2C1=O [HDA-29, cyclo(-L-Asu(NHOH)-D-Phe-L-Leu-D-Pro-)] (cyclo([Asu](NHOH)[dF]L[dP])) | 15.8 | 176 | 43.8 | 198 | 5.41 | 0.00159 | 293 | – | –
7 | CC(C)(C)OC(=O)NCCCC[C@@H]1NC(=O)[C@H](CCCCCC(=O)NO)NC(=O)[C@H]2CCCN2C(=O)[C@H](Cc2ccccc2)NC1=O [HDA-32, cyclo(-L-Asu(NHOH)-L-Lys(Boc)-L-Phe-D-Pro-)] (cyclo([Asu](NHOH)K(Boc)F[dP])) | – | – | – | – | 773 | 0.00495 | – | – | –

— patent publication US6399568B1, “Cyclic tetrapeptide derivatives and medicinal use thereof” (Japan Energy Corporation, priority 1997, dated 2002)
